This passage reports IC50 and Inhibition period results from ChEMBL document CHEMBL1131056, “Rational design of antitumor prostaglandins with high biological stability” (J Med Chem, 1998).

Converted amounts (≈) assume the structure as drawn.

The subject of one test is Colon 26. The test is described as follows: Antiproliferative Activity against colon 26 cancer cells. The class given is functional, cell-based. Conditions: Mus musculus.
As a reminder, the IC50 is the concentration needed to halve the response being measured. Higher therefore signals a need for much substance. Consider `CCCCC[C@H](O)/C=C/[C@H]1C=CC(=O)/C1=C/CCCCCC(=O)O`, for which the IC50 was determined as 0.57 µg/mL (≈ 1.7 µM).
Consider `CCCCCC/C=C/[C@@H]1C=CC(=O)/C1=C/CCCCCC(=O)O`, for which half-maximal inhibition (IC50) was put at 0.23 µg/mL (≈ 0.722 µM).
Compound `CCCCC[C@@H](O)/C=C/[C@@H]1C=CC(=O)/C1=C/CCCCCC(=O)O` had an IC50 of 0.5 µg/mL (≈ 1.49 µM).
`CCCCC[C@H](O)/C=C/[C@@H]1C=CC(=O)/C1=C/CCCCCC(=O)O` came in with an IC50 of 0.35 µg/mL (≈ 1.05 µM).

The subject of a further test is A 172. The test is described as follows: Growth inhibition time for A172 Human Glioma cell growth at concentration 5 uM. In kind it is functional.
Settings: not given
Consider `CCCCC[C@@H](O)/C=C/[C@@H]1C=CC(=O)/C1=C/CCCCCC(=O)OC`, for which the Inhibition period was greater than 72 h.
Still for that read-out and setting: the result for `CCCCC[C@H](O)/C=C/[C@H]1C=CC(=O)/C1=C/CCCCCC(=O)OC` reads less than 48 h; that for `CCCCC[C@H](O)/C=C/[C@@H]1C=CC(=O)/C1=C/CCCCCC(=O)OC`, greater than 72 h.
